According to patent US20260028328A1, “HETEROARYL DERIVATIVES AS DDRs INHIBITORS” (CHIESI FARMACEUTICI S.P.A., priority 2022, published 2026):

Assays:
DDR1 = DDR1 (Homo sapiens (Human), UniProt Q08345); test: DDR1 binding assay (LanthaScreen Europium Kinase Binding assay); settings: 5 nM DDR1, 20 nM Kinase Tracer 178, 1 h at rt; Ki from IC50 by Cheng-Prusoff; read-out: Ki DDR1
Procedure: (§1) DDR1 and DDR2 binding assays were performed using Life Technologies LanthaScreen™ Europium Kinase Binding assay. The compounds were incubated with 5 nM DDR1 (Carna Biosciences) or 5 nM DDR2 (Life Technologies) for 1 h at rt in white 384-well OptiPlate (PerkinElmer), containing 20 nM or 10 nM Kinase Tracer 178 respectively and 2 nM Europium labelled anti-GST antibody (Life Technologies) in assay buffer (50 mM HEPES pH 7.5, 10 mM MgCI2, 1 mM EGTA and 0.01% BRIJ35). The ratio of fluorescence emission 665 nm/615 nm after excitation at 340 nm was obtained using the Tecan Spark 20M plate reader. IC50 values were determined in GraphPad Prism 7.0 software, using 4 parameter model: log(inhibitor) vs. response. IC50 values were converted in Ki using the Cheng-Prusoff equation (Ki=IC50/(1+[Tracer]/Kd).

DDR2 = DDR2 (Homo sapiens (Human), UniProt Q16832); test: DDR2 binding assay (LanthaScreen Europium Kinase Binding assay); settings: 5 nM DDR2, 10 nM Kinase Tracer 178, 1 h at rt; Ki from IC50 by Cheng-Prusoff; read-out: Ki DDR2
DDR2, sequence (Q16832 22-855): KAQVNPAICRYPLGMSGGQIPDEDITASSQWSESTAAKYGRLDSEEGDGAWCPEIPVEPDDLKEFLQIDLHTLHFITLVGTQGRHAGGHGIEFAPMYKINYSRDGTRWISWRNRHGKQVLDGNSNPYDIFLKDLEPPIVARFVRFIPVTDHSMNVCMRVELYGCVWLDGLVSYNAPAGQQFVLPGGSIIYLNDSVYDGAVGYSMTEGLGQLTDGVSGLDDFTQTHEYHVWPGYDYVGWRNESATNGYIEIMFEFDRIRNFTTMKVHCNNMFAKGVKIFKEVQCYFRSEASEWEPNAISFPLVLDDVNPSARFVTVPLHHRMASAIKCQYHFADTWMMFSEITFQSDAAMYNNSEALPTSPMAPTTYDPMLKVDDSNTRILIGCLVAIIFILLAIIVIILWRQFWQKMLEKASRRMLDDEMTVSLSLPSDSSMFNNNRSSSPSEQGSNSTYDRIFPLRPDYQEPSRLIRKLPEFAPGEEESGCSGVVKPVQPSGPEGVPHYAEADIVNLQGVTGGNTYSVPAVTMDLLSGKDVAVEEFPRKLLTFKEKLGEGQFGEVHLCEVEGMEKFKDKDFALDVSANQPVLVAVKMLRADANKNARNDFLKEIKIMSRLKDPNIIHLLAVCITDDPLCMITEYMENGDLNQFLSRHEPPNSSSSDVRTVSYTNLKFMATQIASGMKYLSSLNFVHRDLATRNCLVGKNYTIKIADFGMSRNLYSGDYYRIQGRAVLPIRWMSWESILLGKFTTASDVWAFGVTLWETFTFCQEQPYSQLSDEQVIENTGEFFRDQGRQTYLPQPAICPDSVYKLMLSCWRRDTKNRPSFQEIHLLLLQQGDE
Procedure: as §1

DDR1, sequence (Q08345 19-913): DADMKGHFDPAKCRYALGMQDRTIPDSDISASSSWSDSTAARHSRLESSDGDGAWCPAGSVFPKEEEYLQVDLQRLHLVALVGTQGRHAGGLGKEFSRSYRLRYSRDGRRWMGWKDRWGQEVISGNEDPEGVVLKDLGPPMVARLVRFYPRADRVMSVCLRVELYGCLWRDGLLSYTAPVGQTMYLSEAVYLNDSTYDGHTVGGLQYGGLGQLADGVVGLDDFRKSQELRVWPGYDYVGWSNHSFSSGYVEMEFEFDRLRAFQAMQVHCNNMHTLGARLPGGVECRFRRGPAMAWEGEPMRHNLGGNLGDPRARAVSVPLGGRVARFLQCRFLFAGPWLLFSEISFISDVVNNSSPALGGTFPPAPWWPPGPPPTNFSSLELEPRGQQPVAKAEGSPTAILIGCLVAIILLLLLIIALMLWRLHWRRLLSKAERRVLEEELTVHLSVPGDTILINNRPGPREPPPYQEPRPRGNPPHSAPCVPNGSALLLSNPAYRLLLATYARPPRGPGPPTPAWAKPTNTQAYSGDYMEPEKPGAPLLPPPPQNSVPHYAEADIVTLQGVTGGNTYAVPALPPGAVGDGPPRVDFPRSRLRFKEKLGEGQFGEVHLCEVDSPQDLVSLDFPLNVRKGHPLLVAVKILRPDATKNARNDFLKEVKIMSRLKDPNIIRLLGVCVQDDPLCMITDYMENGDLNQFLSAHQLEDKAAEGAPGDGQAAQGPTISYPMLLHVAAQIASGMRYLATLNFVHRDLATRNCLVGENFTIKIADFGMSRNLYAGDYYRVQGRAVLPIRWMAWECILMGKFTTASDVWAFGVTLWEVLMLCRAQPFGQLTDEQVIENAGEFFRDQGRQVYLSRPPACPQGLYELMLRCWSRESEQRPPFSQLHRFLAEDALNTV

Ki (DDR1): < 5 nM
Ki (DDR2): 5 to 25 nM
SMILES: Cc1ccc(C(=O)Nc2cncc(C(F)(F)F)c2)cc1C1CN(c2cnn3ccncc23)C1 [Example 184, 4-methyl-3-(1-(pyrazolo[1,5-a]pyrazin-3-yl)azetidin-3-yl)-N-(5-(trifluoromethyl)pyridin-3-yl)benzamide]
